Reference: ChEMBL document CHEMBL4706519, “Evaluation of N-phenyl-2-aminothiazoles for treatment of multi-drug resistant and intracellular Staphylococcus aureus infections” (Eur J Med Chem, 2020)
≈ marks a conversion by molar mass, not a printed value.

Columns and labels:
Staphylococcus aureus [1] = test: Antibacterial activity against vancomycin-resistant Staphylococcus aureus 12 assessed as inhibition of bacterial growth measured after 18 to 20 hrs by CLSI protocol based broth microdilution method; type: functional; details: time 18-20 hrs
[2] = Selectivity index, ratio of maximum non-toxic concentration for human Caco-2 cells to MIC for methicillin-resistant Staphylococcus aureus USA300 NRS384; type: toxicity
[3] = Selectivity index, ratio of maximum non-toxic concentration for human Caco-2 cells to MIC for methicillin-resistant Staphylococcus aureus NRS119; type: toxicity
Streptococcus pneumoniae [4] = test: Ratio of MBC to MIC for methicillin-resistant Streptococcus pneumoniae ATCC 700677 assessed as inhibition of bacterial growth measured after 18 to 20 hrs by CLSI protocol based broth microdilution method; type: functional; details: time 18-20 hrs
[5] = test system: Staphylococcus epidermidis; test: Ratio of MBC to MIC for methicillin-resistant Staphylococcus epidermidis NRS101 assessed as inhibition of bacterial growth measured after 18 to 20 hrs by CLSI protocol based broth microdilution method; type: functional; details: time 18-20 hrs
Staphylococcus aureus [6] = test: microbe, parasite or virus in culture; details: USA700 NRS386
Staphylococcus aureus [7] = test: Antibacterial activity against methicillin-resistant Staphylococcus aureus USA400 NRS123 infected in mouse J774 cells assessed as log reduction in intracellular bacterial burden at 4 x MIC measured after 24 hrs; type: functional
Enterococcus faecalis [8] = test: Ratio of MBC to MIC for vancomycin-resistant Enterococcus faecalis ATCC 51299 assessed as inhibition of bacterial growth measured after 18 to 20 hrs by CLSI protocol based broth microdilution method; type: functional; details: time 18-20 hrs
Enterococcus faecium [9] = test: Antibacterial activity against vancomycin-resistant Enterococcus faecium ATCC 700221 assessed as inhibition of bacterial growth measured after 18 to 20 hrs by CLSI protocol based broth microdilution method; type: functional; details: time 18-20 hrs
Staphylococcus aureus [10] = test: Bactericidal activity against methicillin-resistant Staphylococcus aureus USA400 NRS123 assessed as log reduction in viable bacteria count at 5 times MIC incubated for 2 hrs in soy broth followed by incubation for 18 to 20 hrs on agar plate by time kill assay; type: functional; details: time 20-22 hrs
Escherichia coli [11] = test: Antibacterial activity against Escherichia coli JW55031 harboring toIC efflux mutant assessed as inhibition of bacterial growth measured after 18 to 20 hrs by broth microdilution method; type: functional; details: time 18-20 hrs
Staphylococcus aureus [12] = test: microbe, parasite or virus in culture; details: USA400 NRS123
Staphylococcus aureus [13] = test: microbe, parasite or virus in culture; details: USA500 NRS385
Escherichia coli [14] = test: Antibacterial activity against wild type Escherichia coli BW25113 assessed as inhibition of bacterial growth measured after 18 to 20 hrs by broth microdilution method; type: functional; details: time 18-20 hrs
Staphylococcus aureus [15] = test: Antibacterial activity against methicillin-resistant Staphylococcus aureus USA400 NRS123 infected in mouse J774 cells assessed as log reduction in intracellular bacterial burden at 2 x MIC measured after 24 hrs; type: functional
Streptococcus pneumoniae [16] = test: Antibacterial activity against methicillin-resistant Streptococcus pneumoniae ATCC 700677 assessed as inhibition of bacterial growth measured after 18 to 20 hrs by CLSI protocol based broth microdilution method; type: functional; details: time 18-20 hrs
Staphylococcus aureus [17] = test: microbe, parasite or virus in culture; details: NRS119
Staphylococcus aureus [18] = test: Bactericidal activity against methicillin-resistant Staphylococcus aureus USA400 NRS123 assessed as post-antibiotic effect at 5 times MIC incubated for 2 hrs followed by compound wash-out by viable plate count method; type: functional
Staphylococcus aureus [19] = test: microbe, parasite or virus in culture; details: ATCC 6538
[20] = Selectivity index, ratio of maximum non-toxic concentration for human Caco-2 cells to MIC for methicillin-resistant Staphylococcus aureus USA500 NRS385; type: toxicity
Staphylococcus aureus [21] = test: microbe, parasite or virus in culture; details: NRS107
Listeria monocytogenes [22] = test: Antibacterial activity against Listeria monocytogenes ATCC 19111 assessed as inhibition of bacterial growth measured after 18 to 20 hrs by CLSI protocol based broth microdilution method; type: functional; details: time 18-20 hrs
Staphylococcus aureus [23] = test: Antibacterial activity against methicillin-resistant Staphylococcus aureus USA400 NRS123 infected in mouse J774 cells assessed as reduction in intracellular bacterial burden at 2 x MIC measured after 24 hrs relative to control; type: functional
[24] = Cytotoxicity against mouse J774 cells assessed as cell viability at 32 ug/ml incubated for 2 hrs by MTS assay; type: cell-based; details: J774 cells, at 32 µg/mL, read-out: Activity
Staphylococcus aureus [25] = test: Ratio of MBC to MIC against methicillin-sensitive Staphylococcus aureus NRS107 assessed as inhibition of bacterial growth measured after 18 to 20 hrs by CLSI protocol based broth microdilution method; type: functional; details: time 18-20 hrs
[26] = Selectivity index, ratio of maximum non-toxic concentration for human Caco-2 cells to MIC for methicillin-resistant Staphylococcus aureus USA700 NRS386; type: toxicity
Staphylococcus aureus [27] = test: Bactericidal activity against methicillin-resistant Staphylococcus aureus USA400 NRS123 assessed as eradication of bacterial count at 5 times MIC incubated for 8 hrs in soy broth followed by incubation for 18 to 20 hrs on agar plate by time kill assay; type: functional; details: time 26-28 hrs
Staphylococcus aureus [28] = test: Antibacterial activity against vancomycin-resistant Staphylococcus aureus 10 assessed as inhibition of bacterial growth measured after 18 to 20 hrs by CLSI protocol based broth microdilution method; type: functional; details: time 18-20 hrs
[29] = Cytotoxicity against mouse J774 cells assessed as cell viability at 16 ug/ml incubated for 2 hrs by MTS assay relative to control; type: cell-based; details: at 16 µg/mL, read-out: Activity
Staphylococcus aureus [30] = test: Ratio of MBC to MIC against methicillin-sensitive Staphylococcus aureus ATCC 6538 assessed as inhibition of bacterial growth measured after 18 to 20 hrs by CLSI broth microdilution method; type: functional; details: time 18-20 hrs
[31] = Cytotoxicity against human Caco-2 cells assessed as cell viability at 32 ug/ml incubated for 2 hrs by MTS assay relative to control; type: cell-based; details: at 32 µg/mL, read-out: Activity
Streptococcus pneumoniae [32] = test: Ratio of MBC to MIC for cephalosporin-resistant Streptococcus pneumoniae ATCC 51916 assessed as inhibition of bacterial growth measured after 18 to 20 hrs by CLSI protocol based broth microdilution method; type: functional; details: time 18-20 hrs
Staphylococcus aureus [33] = test: Ratio of MIC for methicillin-resistant Staphylococcus aureus USA400 NRS123 measured after 11th passage to MIC for methicillin-resistant Staphylococcus aureus USA400 NRS123 measured after 18 to 20 hrs by broth microdilution assay; type: functional
[34] = Selectivity index, ratio of maximum non-toxic concentration for human Caco-2 cells to MIC for methicillin-resistant Staphylococcus aureus USA400 NRS123; type: toxicity
Listeria monocytogenes [35] = test: Ratio of MBC to MIC for Listeria monocytogenes ATCC 19111 assessed as inhibition of bacterial growth measured after 18 to 20 hrs by CLSI protocol based broth microdilution method; type: functional; details: time 18-20 hrs
Staphylococcus aureus [36] = test: Ratio of MIC for methicillin-resistant Staphylococcus aureus USA400 NRS123 measured after 5th passage to MIC for methicillin-resistant Staphylococcus aureus USA400 NRS123 measured after 18 to 20 hrs by broth microdilution assay; type: functional
Staphylococcus aureus [37] = test: Antibacterial activity against methicillin-resistant Staphylococcus aureus USA300 NRS384 assessed as inhibition of bacterial growth measured after 18 to 20 hrs by broth microdilution method; type: functional; details: time 18-20 hrs
Staphylococcus aureus [38] = test: Antibacterial activity against methicillin-resistant Staphylococcus aureus USA400 NRS123 infected in mouse J774 cells assessed as reduction in intracellular bacterial burden at 4 x MIC measured after 24 hrs relative to control; type: functional
Enterococcus faecalis [39] = test: microbe, parasite or virus in culture; details: ATCC 51299
Enterococcus faecium [40] = test: Ratio of MBC to MIC for vancomycin-resistant Enterococcus faecium ATCC 700221 assessed as inhibition of bacterial growth measured after 18 to 20 hrs by CLSI protocol based broth microdilution method; type: functional; details: time 18-20 hrs
Streptococcus pneumoniae [41] = test: Antibacterial activity against cephalosporin-resistant Streptococcus pneumoniae ATCC 51916 assessed as inhibition of bacterial growth measured after 18 to 20 hrs by CLSI protocol based broth microdilution method; type: functional; details: time 18-20 hrs
[42] = test system: Staphylococcus epidermidis; test: Antibacterial activity against methicillin-resistant Staphylococcus epidermidis NRS101 assessed as inhibition of bacterial growth measured after 18 to 20 hrs by CLSI protocol based broth microdilution method; type: functional; details: time 18-20 hrs

C/C(=N\NC(=N)N)c1ccc(Nc2nc(-c3ccccc3)cs2)cc1
MBC (Staphylococcus aureus [1]): 4 µg/mL (≈ 11.4 µM)
MIC (Staphylococcus aureus [1]): 2 µg/mL (≈ 5.71 µM)
selectivity ratio [2]: 16
selectivity ratio [3]: 16
Ratio (Streptococcus pneumoniae [4]): 1
Ratio [5]: 1
MBC (Staphylococcus aureus [6]): 8 µg/mL (≈ 22.8 µM)
MIC (Staphylococcus aureus [6]): 2 µg/mL (≈ 5.71 µM)
Activity (Staphylococcus aureus [7]): 1.19 log10CFU/ml
Ratio (Enterococcus faecalis [8]): 1
MBC (Enterococcus faecium [9]): 4 µg/mL (≈ 11.4 µM)
MIC (Enterococcus faecium [9]): 2 µg/mL (≈ 5.71 µM)
Activity (Staphylococcus aureus [10]): 3 log10CFU/ml
MIC (Escherichia coli [11]): 4 µg/mL (≈ 11.4 µM)
MBC (Staphylococcus aureus [12]): 2 µg/mL (≈ 5.71 µM)
MIC (Staphylococcus aureus [12]): 2 µg/mL (≈ 5.71 µM)
MBC (Staphylococcus aureus [13]): 2 µg/mL (≈ 5.71 µM)
MIC (Staphylococcus aureus [13]): 2 µg/mL (≈ 5.71 µM)
MIC (Escherichia coli [14]): 8 µg/mL (≈ 22.8 µM)
Activity (Staphylococcus aureus [15]): 1.07 log10CFU/ml
MBC (Streptococcus pneumoniae [16]): 8 µg/mL (≈ 22.8 µM)
MIC (Streptococcus pneumoniae [16]): 2 µg/mL (≈ 5.71 µM)
MBC (Staphylococcus aureus [17]): 4 µg/mL (≈ 11.4 µM)
MIC (Staphylococcus aureus [17]): 2 µg/mL (≈ 5.71 µM)
PAE (Staphylococcus aureus [18]): 2 h
MBC (Staphylococcus aureus [19]): 2 µg/mL (≈ 5.71 µM)
MIC (Staphylococcus aureus [19]): 2 µg/mL (≈ 5.71 µM)
selectivity ratio [20]: 16
MBC (Staphylococcus aureus [21]): 4 µg/mL (≈ 11.4 µM)
MIC (Staphylococcus aureus [21]): 1 µg/mL (≈ 2.85 µM)
MBC (Listeria monocytogenes [22]): 4 µg/mL (≈ 11.4 µM)
MIC (Listeria monocytogenes [22]): 1 µg/mL (≈ 2.85 µM)
inhibition (INH) (Staphylococcus aureus [23]): 88%
viability at 2 h, 32 ug/ml [24]: 100%
Ratio (Staphylococcus aureus [25]): 1
selectivity ratio [26]: 16
Activity (Staphylococcus aureus [27]): 100%
MBC (Staphylococcus aureus [28]): 2 µg/mL (≈ 5.71 µM)
MIC (Staphylococcus aureus [28]): 2 µg/mL (≈ 5.71 µM)
viability at 2 h, 16 ug/ml [29]: 100%
Ratio (Staphylococcus aureus [30]): 1
viability at 2 h, 32 ug/ml [31]: 100%
Ratio (Streptococcus pneumoniae [32]): 1
Ratio (Staphylococcus aureus [33]): 3
selectivity ratio [34]: 16
Ratio (Listeria monocytogenes [35]): 1
Ratio (Staphylococcus aureus [36]): 1
MIC (Staphylococcus aureus [37]): 2 µg/mL (≈ 5.71 µM)
inhibition (INH) (Staphylococcus aureus [38]): 93%
MBC (Enterococcus faecalis [39]): 4 µg/mL (≈ 11.4 µM)
MIC (Enterococcus faecalis [39]): 2 µg/mL (≈ 5.71 µM)
Ratio (Enterococcus faecium [40]): 1
MBC (Streptococcus pneumoniae [41]): 4 µg/mL (≈ 11.4 µM)
MIC (Streptococcus pneumoniae [41]): 2 µg/mL (≈ 5.71 µM)
MBC [42]: 1 µg/mL (≈ 2.85 µM)
MIC [42]: 1 µg/mL (≈ 2.85 µM)
